Data from patent US7586023B1, “Methods of conferring ppo-inhibiting herbicide resistance to plants by gene manipulation” (Sumitomo Chemical Company, Limited, priority 1996, dated 2009).

Experiments:
[1] = test system: Chlamydomonas reinhardtii GB-2951; test: Herbicide resistance test of GB-2951 grown in TAP liquid media with various concentrations of the compounds; type: cell-based; conditions: compared with wild type strain CC-125
Experimental: Resistance of GB-2951 to several herbicides was tested by growing the strain in TAP liquid media containing various concentration of the compounds, according to the method described by Shibata et al. (Research in Photosynthesis, Vol III, pp. 567-570, Murata ed., c. 1992 by Kluwer Academic Publisher, Dordrecht, Netherlands). […] Moreover, GB-2951 was crossed to wild type strain CC-124 and several sets of tetrads were isolated according to the method as described by Harris (Harris, E. H., The Chlamydomonas Sourcebook, c. 1989 by Academic Press, San Diego, Calif.). All tetrads segregated two herbicide (compound A) sensitive and two herbicide-resistant progeny. In addition, tetrads from a cross of GB-2951 to RS-322, a porphyria herbicide-resistant isolate from a cross of RS-3 and CC-124, yielded no herbicide-sensitive progeny.

[2] = test system: E. coli strains with a cDNA encoding a herbicide-resistant PPO (resistant transformants); test: Colony formation of herbicide-resistant E. coli SASX38 transformants on LB+ampicillin agar with compound; type: cell-based; conditions: same concentration of Compound A, compared to medium free of Compound A
Text: (§1) The plasmid vector containing the cDNA encoding a herbicide-sensitive PPO enzyme obtained in Example 2 or 9 is introduced into the mutant SASX38 strain of E. coli in which the endogenous the PPO gene (hemG locus) is deleted and herbicide-sensitive transformants are selected by the method in Example 2. Similarly, a cDNA encoding a herbicide-resistant PPO is obtained according to the method in Example 12, with a base pair alteration at the position of Val13 in SEQ. ID. NO.: 1, SEQ. ID. NO.: 2 and SEQ. ID. NO.: 3 resulting in the substitution of methionine for valine. Said cDNA is re-cloned in the plasmid vector pUC118 (Nishimura et al., J. Biol. Chem. 270: 8076 (1995)), and said plasmid vector is introduced into E. coli SASX38 to obtain herbicide-resistant transformants. Both sensitive and resistant transformants are separately plated on LB+ ampicillin agar medium supplemented with compound A at a given concentration, and incubated for two days. Colony formation is then evaluated to assess the growth of the sensitive and resistant transformants in the presence of the herbicide. […]

[3] = test system: E. coli strains with the cDNA encoding a herbicide-sensitive PPO (sensitive transformants); test: Colony formation of herbicide-sensitive E. coli SASX38 transformants on LB+ampicillin agar with compound; type: cell-based; conditions: particular concentration of Compound A, two days, compared to medium lacking Compound A
Text: as §1

[4] = test system: Ipomoea hederacea; test: Weed control test in greenhouse; type: in vivo; conditions: 100 g/ha; either method (soil surface after sowing, 27 days; sprayed onto plants at 18 days, 20 days)
Experimental: (§2) Flats with an area of 33×23 cm^2 and a depth of 11 cm are filled with upland field soil. Seeds of crop plants with herbicide-resistant PPO genes developed according to methods similar to those described in Example 16 are planted along with those of weeds such as Echinochloa crus-galli, Abutilon theophrasti and Ipomoea hederacea, and covered with 1-2 cm soil. Compounds of formulae 20 and 22 (wherein R is an ethyl group) of an amount of equivalent to 100 g/ha are dissolved in 20 volumes of a mixture of surfactant and liquid carrier, such as a mixture of calcium dodecylbenzenesulfonate/polyoxyethylene styrylphenyl ether/xylene/cyclohexanone=1:2:4:8 (v/v), and diluted with water of a volume equivalent to 10 L/ha, then sprayed on surface of the soil immediately after sowing. Test plants are grown in a greenhouse for 27 days after treatment to observe weed control activity and crop phytotoxicity of the test compounds.
(§3) Seeds of the aforementioned crop plants with herbicide-resistant PPO genes are planted along with those of weeds such as Echinochloa crus-galli, Abutilon theophrasti and Ipomoea hederacea, covered with soil of 1-2 cm deep, and the plants grown for 18 days in the greenhouse. Compounds of formulae 20 and 22 (wherein R is an ethyl group) of an amount of equivalent to 100 g/ha are dissolved in 20 volumes of a mixture of surfactant and liquid carrier, such as the mixture of calcium dodecylbenzenesulfonate/polyoxyethylene styrylphenyl ether/xylene/cyclohexanone=1:2:4:8 (v/v), and diluted with water of a volume equivalent to 10 L/ha, then sprayed onto plants from the above. Test plants are grown in a greenhouse for 20 days after treatment for observation of weed control activity and crop phytotoxicity by test compounds.

[5] = test system: Echinochloa crus-galli; test: Weed control test in greenhouse; type: in vivo; conditions: 100 g/ha; either method (soil surface after sowing, 27 days; sprayed onto plants at 18 days, 20 days)
Experimental: as §2, §3

[6] = test system: Abutilon theophrasti; test: Weed control test in greenhouse; type: in vivo; conditions: 100 g/ha; either method (soil surface after sowing, 27 days; sprayed onto plants at 18 days, 20 days)
Experimental: as §2, §3

[7] = test system: crop plants transformed with the herbicide-resistant PPO gene; test: Weed control test, crop phytotoxicity in greenhouse; type: in vivo; conditions: 100 g/ha; either method (soil surface after sowing, 27 days; sprayed onto plants at 18 days, 20 days)
Experimental: as §2
Seeds of the aforementioned crop plants with herbicide-resistant PPO genes are planted along with those of weeds such as Echinochloa crus-galli, Abutilon theophrasti and Ipomoea hederacea, covered with soil of 1-2 cm deep, and the plants grown for 18 days in the greenhouse. […]

C#CCOc1cc(N2C(=O)C3=C(CCCC3)C2=O)c(F)cc1Cl [compound A, [N-(4-chloro-2-fluoro-5-propargyloxy)phenyl-]3,4,5,6-tetrahydrophthalimide]
resistance or sensitivity of GB-2951 to the herbicide [1]: showed resistance | growth of resistant transformants [2]: same level of growth | growth of sensitive transformants [3]: strongly suppressed

CN(C)C(=O)Nc1ccc(Cl)c(Cl)c1 [diuron]
resistance or sensitivity of GB-2951 to the herbicide [1]: as sensitive

C[n+]1ccc(-c2cc[n+](C)cc2)cc1 [paraquat]
resistance or sensitivity of GB-2951 to the herbicide [1]: as sensitive

CC(C)OC(=O)c1cc(-n2c(=O)cc(C(F)(F)F)n(C)c2=O)ccc1Cl [formula 20]
weed control activity (growth) [4]: inhibited | weed control activity (growth) [5]: inhibited | weed control activity (growth) [6]: inhibited | crop phytotoxicity [7]: no significant phytotoxicity

COC(=O)c1cc(Oc2ccc(C(F)(F)F)cc2Cl)ccc1[N+](=O)[O-] [acifluorfen-methyl]
resistance or sensitivity of GB-2951 to the herbicide [1]: showed resistance
